Results as given in patent US10322092B2, “Substance-containing vesicle, and production method therefor” (JAPAN SCIENCE AND TECHNOLOGY AGENCY, priority 2013, dated 2019).

How the values were obtained:
[1] = Viscosity of FITC-Dex solutions (rotating rheometer); format: physicochemical
Description: The viscosity was measured using a rotating rheometer (Physica MCR302, product of Anton Paar).

[2] = test system: mouse colon cancer cell line C26; assay: Tumor treatment effect in C26-transplanted BALB/c mice; format: in vivo; conditions: for antitumor effect (tumor volume): i.v., days 3, 7, 10, 14
Description: Mouse colon cancer cell line C26-transplanted BALB/c mice (6-week-old) were divided into 8 groups of 5 each (groups 1 to 8), and each group was intravenously administered 200 μL each of CD-enclosing crosslinked vesicles (0.5 U/mL) prepared by the procedure described above, 5-FC, 5-FU or PBS, at the timing shown in Table 9 below. The 5-FC and 5-FU were prepared for 10 mg/kg (body weight) or 80 mg/kg (body weight), based on the mouse body weight. […] The tumor volume was measured by measuring the long diameter and short diameter of the tumor using a caliper, and the calculation was performed by the following formula. V=(a^2×b)/2 V: Tumor volume, a: long diameter, b: short diameter

[3] = test system: A549 cells; assay: Cytotoxic effect (Cell Counting Kit-8); format: cell-based, human; conditions: 48 and 72 hours, gemcitabine concentration 0.5 μg/mL or matched carrier amount
Description: Specifically, the GEM-adsorbed sulfonated MSN-encapsulating vesicles obtained by the procedure described above (sample No. 1), the sulfonated MSN-encapsulating vesicles used as material for the foregoing (Example II-3A) (sample No. 2) and the vacant vesicles used as material for the foregoing (Example II-1) (sample No. 5) were each labeled with Cy3 (labeling 25% of the number of anionic polymers), and then A549 cells were added to each well of a plate having a density of 2.2×10^3 cells/well in RPMI-1640 medium, prior to culturing at 37° C. The amount of GEM-adsorbed sulfonated MSN-encapsulating vesicles (sample No. 1) added was an amount for a gemcitabine concentration of 0.5 μg/mL in the medium, the amounts of sulfonated MSN-encapsulating vesicles (sample No. 2) and vacant vesicles (sample No. 5) added were adjusted to be the same as the amount of GEM-adsorbed sulfonated MSN-encapsulating vesicles (sample No. 1) in terms of MSN-encapsulating vesicles. […]
Also, the cytotoxic effects of each of the samples (sample Nos. 1 to 6) at 48 hours and 72 hours after the start of culturing were evaluated by the following procedure. Specifically, using a Cell Counting Kit-8 (product of Dojindo) according to the manufacturer's instructions, reagent was added to each well and culturing was conducted for 1 hour, after which the viable cell count was measured. […]

[4] = test system: C26 cells; assay: Cytotoxic effect (Cell Counting Kit-8); format: cell-based, murine; conditions: 48 and 72 hours, gemcitabine concentration 0.1 μg/mL or matched carrier amount
Description: Also, the cytotoxic effects of each of the samples (sample Nos. 1 to 6) at 48 hours and 72 hours after the start of culturing were evaluated by the following procedure. Specifically, using a Cell Counting Kit-8 (product of Dojindo) according to the manufacturer's instructions, reagent was added to each well and culturing was conducted for 1 hour, after which the viable cell count was measured. The results after 48 hours of culturing are shown in FIG. 34(a), and the results after 72 hours of culturing are shown in FIG. 34(b).
In addition, using C26 cells (a murine colon adenocarcinoma cell line) instead of A549 cells, the cell uptake property and cytotoxic effect were evaluated by the same procedure described above, except for the points mentioned below. […]

[5] = test system: human pulmonary carcinoma cell line A549; assay: Tumor treatment effect in A549-transplanted BALB/c nude mice; format: in vivo, mouse; conditions: 200 μL i.v.; gemcitabine 5 mg/kg or matched carrier amount; 28 days; vs PBS group
Description: Human pulmonary carcinoma cell line A549-transplanted BALB/c nude mice (7-week-old, for each sample) were divided into 7 groups of 5 each, among which 6 of the groups were intravenously administered samples 1 to 6 (Groups 1 to 6), respectively. The dose of each sample was 200 μL, and the concentration of each sample of the GEM-adsorbed sulfonated MSN-encapsulating vesicles (sample No. 1), the GEM-adsorbed sulfonated MSN (sample No. 3) and the gemcitabine alone (sample No. 6) was adjusted for a gemcitabine concentration of 5 mg/kg of mouse body weight, while the amounts of sulfonated MSN-encapsulating vesicles (sample No. 2) and vacant vesicles (sample No. 5) added were adjusted to be the same as the amount of GEM-adsorbed sulfonated MSN-encapsulating vesicles (sample No. 1) in terms of MSN-encapsulating vesicles, and the amount of sulfonated MSN (sample No. 4) added was adjusted to be the same as the amount of GEM-adsorbed sulfonated MSN (sample No. 3) in terms of MSN. To the remaining group there was administered 200 μL of PBS (Group 7). The tumor volumes were measured for 28 days after administration. Tumor volume was measured by measuring the long diameter and short diameter of the tumor using a caliper, and calculation was performed by the following formula. V=(a^2×b)/2 V: Tumor volume, a: long diameter, b: short diameter

[6] = dose of 10 mg/kg (5-FC or 5-FU)
[7] = dose of 80 mg/kg (5-FC or 5-FU)

Compound | viscosity ([1]; concentration 4 mg/mL) [Pa·s] | viscosity ([1]; concentration 10 mg/mL) [Pa·s] | antitumor effect (tumor volume) [2, 6] | antitumor effect (tumor volume) [2, 7] | other results
fluorescein isothiocyanate-dextran [FITC-Dex 40000] | 0.0513 | 0.1377 |  |  | viscosity ([1]; concentration 50 mg/mL): 0.5481 Pa·s
Nc1nc(=O)[nH]cc1F [Example 5-FC, 5-fluorocytosine] |  |  | no significant antitumor effect or toxicity | no significant antitumor effect or toxicity | 
fluorescein isothiocyanate-dextran [FITC-Dex 10000] | 0.0504 | 0.1271 |  |  | 
fluorescein isothiocyanate-dextran [FITC-Dex 4000] |  | 0.0097 |  |  | 
Nc1ccn([C@@H]2O[C@H](CO)[C@@H](O)C2(F)F)c(=O)n1 [gemcitabine alone, Gemcitabine] |  |  |  |  | cytotoxic effect (viable cell count) [3]: powerful cytotoxic effect; cytotoxic effect (viable cell count) [4]: powerful cytotoxic effect; antitumor effect (tumor volume) [5]: no significant antitumor effect was seen
O=c1[nH]cc(F)c(=O)[nH]1 [Example 5-FU, 5-fluorouracil] |  |  | very weak antitumor effect | antitumor effect that shrunk the tumor | individuals died by the 28th day after administration ([2]; dose of 10 mg/kg, 5 mice per group): 3; survival ([2]; dose of 80 mg/kg, 5 mice per group, up to 28 days): all of the individuals died by the 17th day
